The values below come from US12655126B2, “Imidazole-pyrazole derivatives as antibacterials” (Hoffmann-La Roche Inc., priority 2020, dated 2026).

Counter-ions that a name gives are not always drawn.

One assay has as its system Acinetobacter baumannii ATCC17961. Nature of the assay: Antimicrobial susceptibility testing: 90% growth inhibitory concentration (IC90) determination. Type of assay: cell-based. Particulars: Acinetobacter baumannii ATCC17961; Iso-Sensitest broth; growth by OD 600 nm over 16 h; 90% growth inhibitory concentration; read-out: ATCC 17961 IC90. The method, then:
Antimicrobial Susceptibility Testing:
90% Growth Inhibitory Concentration (IC90) Determination
The in vitro antimicrobial activity of the compounds was determined according to the following procedure:
The assay used a 10-points Iso-Sensitest broth medium to measure quantitatively the in vitro activity of the compounds against Acinetobacter baumannii ATCC17961.
Stock compounds in DMSO were serially twofold diluted (e.g. range from 50 to 0.097 μM final concentration) in 384 wells microtiter plates and inoculated with 49 μl the bacterial suspension in Iso-Sensitest medium to have a final cell concentration of ˜5×10^(5) CFU/ml in a final volume/well of 50 ul/well. Microtiter plates were incubated at 35±2° C.
Bacterial cell growth was determined with the measurement of optical density at λ=600 nm each minutes over a time course of 16 h. Growth inhibition was calculated during the logarithmic growth of the bacterial cells with determination of the concentration inhibiting 50% (IC50) and 90% (IC90) of the growth.
Table 1 provides the 90% growth inhibitory concentrations (IC90) in micromoles per liter of the compounds of present invention obtained against the strain Acinetobacter baumannii ATCC17961.
Usually IC90 stands for the concentration at which the effect reaches the 90% level. With `COc1ccc(-n2cc(-c3cnc(C(=O)Nc4ccc(C(=O)N5CCN(C(=O)C[N+]6(C)CC[C@@H](O)C6)CC5)c(Cl)c4)n3C)c(C(F)(F)F)n2)nc1` (stereo partly drawn) [Example A7, N-[3-chloro-4-[4-[2-[(3R)-3-hydroxy-1-methyl-pyrrolidin-1-ium-1-yl]acetyl]piperazine-1-carbonyl]phenyl]-5-[1-(5-methoxy-2-pyridyl)-3-(trifluoromethyl)pyrazol-4-yl]-1-methyl-imidazole-2-carboxamide; formate], the IC90 stood at 0.55 µM.
Turning to `Cn1c(-c2cn(-c3ncc(N)cc3F)nc2C(F)(F)F)cnc1C(=O)Nc1ccc(C(=O)N2CCN(C(=O)C3CC[N+](C)(C)CC3)CC2)c(Cl)c1` [Example A8, 5-[1-(5-amino-3-fluoro-2-pyridyl)-3-(trifluoromethyl)pyrazol-4-yl]-N-[3-chloro-4-[4-(1,1-dimethylpiperidin-1-ium-4-carbonyl)piperazine-1-carbonyl]phenyl]-1-methyl-imidazole-2-carboxamide], the IC90 is 0.33 µM.
The same measure, in the same setting: as for `Cc1cc(-n2cc(-c3cnc(C(=O)Nc4ccc(C(=O)N5CCN(C(=O)C6CC[N+](C)(C)CC6)CC5)c(Cl)c4)n3C)c(C(F)(F)F)n2)ncc1N` [Example A9, 5-[1-(5-amino-4-methyl-2-pyridyl)-3-(trifluoromethyl)pyrazol-4-yl]-N-[3-chloro-4-[4-(1,1-dimethylpiperidin-1-ium-4-carbonyl)piperazine-1-carbonyl]phenyl]-1-methyl-imidazole-2-carboxamide], the figure is 0.29 µM; as for `Cn1c(-c2cn(-c3ccc(N)c(F)n3)nc2C(F)(F)F)cnc1C(=O)Nc1ccc(C(=O)N2CCN(C(=O)C3CC[N+](C)(C)CC3)CC2)c(Cl)c1` [Example A10, 5-[1-(5-amino-6-fluoro-2-pyridyl)-3-(trifluoromethyl)pyrazol-4-yl]-N-[3-chloro-4-[4-(1,1-dimethylpiperidin-1-ium-4-carbonyl)piperazine-1-carbonyl]phenyl]-1-methyl-imidazole-2-carboxamide], 0.51 µM; as for `Cc1nc(-n2cc(-c3cnc(C(=O)Nc4ccc(C(=O)N5CCN(C(=O)C6CC[N+](C)(C)CC6)CC5)c(Cl)c4)n3C)c(C(F)(F)F)n2)ccc1N` [Example A11, 5-[1-(5-amino-6-methyl-2-pyridyl)-3-(trifluoromethyl)pyrazol-4-yl]-N-[3-chloro-4-[4-(1,1-dimethylpiperidin-1-ium-4-carbonyl)piperazine-1-carbonyl]phenyl]-1-methyl-imidazole-2-carboxamide], 0.23 µM.
`Cn1c(-c2cn(-c3cc(Cl)c(N)cn3)nc2C(F)(F)F)cnc1C(=O)Nc1ccc(C(=O)N2CCN(C(=O)C3CC[N+](C)(C)CC3)CC2)c(Cl)c1` [Example A12, 5-[1-(5-amino-4-chloro-2-pyridyl)-3-(trifluoromethyl)pyrazol-4-yl]-N-[3-chloro-4-[4-(1,1-dimethylpiperidin-1-ium-4-carbonyl)piperazine-1-carbonyl]phenyl]-1-methyl-imidazole-2-carboxamide]: the IC90 was 0.27 µM.
The same measure, in the same setting: in the case of `Cn1c(-c2cn(-c3ncccn3)nc2C(F)(F)F)cnc1C(=O)Nc1ccc(C(=O)N2CCN(C(=O)[C@@H]3C[C@@H](O)C[N+]3(C)C)CC2)c(Cl)c1` [Example B2, N-[3-chloro-4-[4-[(2S,4R)-4-hydroxy-1,1-dimethyl-pyrrolidin-1-ium-2-carbonyl]piperazine-1-carbonyl]phenyl]-1-methyl-5-[1-pyrimidin-2-yl-3-(trifluoromethyl)pyrazol-4-yl]imidazole-2-carboxamide; formate] it was 1.6 µM.

The assay is the same for the next values; noted with them: Acinetobacter baumannii, ATCC17961, 16 h, read-out: ATCC 17961 IC90.
On to `Cn1c(-c2cn(-c3ncccn3)nc2C(F)(F)F)cnc1C(=O)Nc1ccc(C(=O)N2CCN(C(=O)C3CC[N+](C)(C)CC3)CC2)c(Cl)c1` [Example B1, N-[3-Chloro-4-[4-(1,1-dimethylpiperidin-1-ium-4-carbonyl)piperazine-1-carbonyl]phenyl]-1-methyl-5-[1-pyrimidin-2-yl-3-(trifluoromethyl)pyrazol-4-yl]imidazole-2-carboxamide; formate], for which the IC90 was 0.94 µM.
